# Molecular target: T1, MAPK11 (p38 beta) (Homo sapiens, UniProt Q15759)
# T1 construct: purchased Thermo Fisher Scientific (Life Technologies) SelectScreen
# Assay: SelectScreen Z'LYTE
# Type: biochemical
# Procedure, shortened: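 Percent values come from Thermo SelectScreen profiling of NU5455, combining activity and binding assays. CSF1R was run in Z'LYTE format at Km app ATP, and CAMK1 in Adapta format with ATP listed at 10.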
# T1 sequence (Q15759 whole entry): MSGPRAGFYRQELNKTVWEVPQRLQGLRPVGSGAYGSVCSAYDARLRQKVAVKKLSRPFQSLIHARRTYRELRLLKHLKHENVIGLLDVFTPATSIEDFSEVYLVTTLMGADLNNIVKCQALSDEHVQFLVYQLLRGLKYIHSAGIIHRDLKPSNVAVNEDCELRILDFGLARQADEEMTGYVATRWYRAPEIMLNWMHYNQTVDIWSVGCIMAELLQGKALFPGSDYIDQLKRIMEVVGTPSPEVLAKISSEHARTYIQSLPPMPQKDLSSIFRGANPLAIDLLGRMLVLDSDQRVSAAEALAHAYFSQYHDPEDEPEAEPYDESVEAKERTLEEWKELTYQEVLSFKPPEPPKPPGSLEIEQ
smiles,measurement,value
CN(C(=O)CN1CCOCC1)c1ccc2sc3c(-c4cccc5c(=O)cc(N6CC7CCC(C6)O7)oc45)cccc3c2c1 [NU5455],inhibition at 1 µM,9.5%
